Literature values in patent US20040009962A1, “Combined estrogen blockade of the breast with exemestane and raloxifene” (priority 2000, published 2004).
Like-named read-outs stand apart in the source and are kept apart here.

What was measured:
[1] = tested on: 7, 12-dimethyl-benzanthracene (DMBA)-induced mammary tumors; conditions: rats
[2] = Ames, V79, E. coli, DNA repair on rat hepatocytes, micronucleus, in vivo and in vitro chromosome aberration
[3] = tested on: DMBA-induced rat mammary tumor; conditions: DMBA-induced rat mammary tumor model
whole body aromatization = conditions: 10 postmenopausal women with advanced breast cancer
metastatic breast cancer [4] = conditions: 25 mg/day
[5] = tested on: plasma estrogen levels (E2, E1, E1S); conditions: suppression of E2, E1 and E1S, postmenopausal women
metastatic breast cancer [6] = conditions: 25 mg/day orally, 241 women
rats [7] = tested on: rats
metastatic breast cancer [8] = tested on: metastatic breast cancer
[9] = except at relatively high doses
[10] = deep vein thrombosis, pulmonary embolism, retinal vein thrombosis
metastatic breast cancer [11] = conditions: 200 mg/day
[12] = tested on: DMBA- and NMN-induced mammary carcinogenesis; conditions: may be less when compared with tamoxifen
endometrium = conditions: baseline vs 8 weeks of treatment
[13] = tested on: healthy postmenopausal women
rats [14] = tested on: rats; remark: listed apart in the source
healthy men = conditions: 200 mg/day orally
[15] = tested on: early stage breast cancer
metastatic breast cancer [16] = tested on: metastatic breast cancer; remark: listed apart in the source
[17] = tested on: MCF-7 breast cancer cells; conditions: estrogen deficient state vs supplemented with estrogen
[18] = all doses, interim analysis, vs placebo

In the case of `C=C1C[C@@H]2[C@H](CC[C@]3(C)C(=O)CC[C@@H]23)[C@@]2(C)C=CC(=O)C=C12` [exemestane, Exemestane], the “efficacy against DMBA-induced mammary tumors” value [1] is given as “highly effective”, the “genotoxic potential, all tests except chromosome aberration in human lymphocytes” value [2] is given as “negative” and the embryotoxic dose (rabbits) is given as ≥ 270 mg/kg. For the same molecule, the teratogenicity (rabbits) was “not teratogenic”, the “appearance of new tumors” value [3] was “reduced” and the objective response rate [3] was 44%. For the same molecule, the “concentration from which the chromosome aberration test was positive” value (human lymphocytes) was ≥ 12000 ng/mL, the “mean suppression of whole body aromatization” value (whole body aromatization) was 97.9% and the “whole body aromatization on treatment (mean)” value (whole body aromatization; pretreatment 2.059%) was 0.042%. The overall response rate (metastatic breast cancer [4]; 87 women, 95% CI 6-20) was 11%, the “SD>6 months” value (metastatic breast cancer [4]; additional patients) was 17.2% and the “dose at which inhibition of plasma estrogen levels became apparent” value [5] was “about 1 mg”. For the same molecule, the “overall success rate (CR+PR+SD>6 months)” value (metastatic breast cancer [6]) was 25%, the “overall objective response rate” value (metastatic breast cancer [6]; third- and fourth-line) was 7% and the embryotoxic dose (rats [7]) was ≥ 50 mg/kg. The teratogenicity (rats [7]) was “not teratogenic”, the “overall success rate (CR+PR+SD>6 months)” value (metastatic breast cancer [8]; 25 mg) was 47% and the “overall response rate (CR+PR)” value (metastatic breast cancer [8]; 25 mg, 128 postmenopausal women, 95% CI 21-37) was 28%. For the same molecule, the “overall response rate (CR+PR)” value (metastatic breast cancer [8]; 88 patients who had measurable disease) was 34%, the “median duration of response” value (metastatic breast cancer [8]; 95% CI 11-20 months) was 14 months and the overall response rate (metastatic breast cancer [8]; patients with visceral disease) was 33%. The “stable disease>6 months” value (metastatic breast cancer [8]; treated population) was 19% and the tolerability [9] was “good tolerability”.
For `O=C(c1ccc(OCCN2CCCCC2)cc1)c1c(-c2ccc(O)cc2)sc2cc(O)ccc12` [raloxifene, Raloxifene], the “agonist activity on the rat uterus” value (rat uterus; administered alone) is given as “little agonist activity”, the “uterotropic action of estradiol” value (rat uterus; immature rat) is given as “inhibits” and the “risk of venous thromboembolic events” value [10] is given as “increased risk”. The tolerability (metastatic breast cancer [11]; 14 patients) was “well tolerated”, the objective responses (metastatic breast cancer [11]; tamoxifen-refractory group) was “no objective responses” and the anti-tumor activity [12] was “anti-tumor activity”. The “change in the endometrium on uterine biopsy” value (endometrium) was “no change”, the “bone mineral density in the hip, spine, femur and total body” value [13, 18] was “increase” and the “markers of bone turnover” value [13, 18] was “decrease”. The HDL cholesterol ([13]; in vivo) was “unchanged”, the “serum total and LDL cholesterol” value ([13]; in vivo) was “significantly decreased” and the side effects ([13]; in vivo) was “increased hot flashes and leg cramps”. For the same molecule, the tolerability ([13]; in vivo) was “well tolerated”, the endometrial thickness ([13]; transvaginal ultrasound, any treatment group) was “unaffected” and the “DNA adducts or hepatocarcinogenesis” value (rats [14]) was “no reports”. For the same molecule, the “response to exogenous estrogen (anti-estrogen effect)” value (healthy men) was “blunt”, the “relative risk of endometrial cancer” value (postmenopausal women; p=0.232) was 0.38 and the “risk reduction of breast cancer” value (postmenopausal women; raloxifene 60 or 120 mg/day vs controls) was 58%. For the same molecule, the “relative risk of endometrial cancer” value (postmenopausal women; two cases diagnosed within one month of randomization excluded, p=0.045) was 0.13, the bone mineral density (ovariectomized rat) was “increases” and the serum cholesterol (ovariectomized rat) was “decreases”.
For `CC/C(=C(\c1ccccc1)c1ccc(OCCN(C)C)cc1)c1ccccc1` [tamoxifen, Tamoxifen], the “annual rates of recurrence and mortality” value ([15]; adjuvant therapy, premenopausal and postmenopausal women) is listed as “reduce”, the “reduction of the risk of contralateral breast cancer” value ([15]; five years of adjuvant tamoxifen vs no adjuvant therapy) is listed as 47% and the “appearance of new tumors” value [3] is listed as “reduced”. The objective response rate [3] was 29%, the response rates (metastatic breast cancer [16]; premenopausal women, metastatic breast cancer) was 20 to 45% and the objective response rates (metastatic breast cancer [16]; unselected postmenopausal women with metastatic disease) was 30 to 40%. For the same molecule, the response rates (metastatic breast cancer [16]; women with ER-positive and PR-positive tumors) was 60-70% and the tumor mitotic rate [17] was “marked reduction”.
In the case of estrogen, the “change in the endometrium on uterine biopsy” value (endometrium) is listed as “significant endometrial stimulation”.
